# Reference: article PMC12892976, “Alkylation-based optimization of antifungal FPPS inhibitors yields a potent, broad-spectrum lipophilic zoledronate derivative” (mBio, 2025)
# Read-outs that look alike come from different tables or passages of the source.
# What was measured:
# Saccharomyces cerevisiae = assay: checkerboard drug interaction (FICI, MICc); assay type: cell-based; set-up: INH MICc / INH MICc (ITR:INH) / INH MICc (KET:INH) / INH MICc (FLC:INH): unit not given beside the values;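 note: simplified diagonal checkerboard screen pairing antifungals with FPPS inhibitors, FICI calculated under the Loewe additivity model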
# [1] = test system: Cryptococcus deuterogattii; assay: MIC/MFC broth microdilution (CLSI); conditions: Cryptococcus deuterogattii;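 note: broth microdilution per CLSI M27-Ed4. MFC is the lowest concentration yielding no colonies when MIC broths are subcultured onto SDA plates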
# Method: (§1) Antifungal susceptibility was determined by broth microdilution according to the CLSI guidelines described in M27-Ed4 ([16]). […] MFC was determined by back-plating drug-treated cultures from MIC broths onto SDA plates. The MFC was defined as the lowest concentration from which no colonies could be cultured.
# Aspergillus fumigatus [2] = assay: checkerboard drug interaction (FICI, MICc); assay type: cell-based;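 note: simplified diagonal checkerboard screen pairing antifungals with FPPS inhibitors against Aspergillus fumigatus, with FICI calculated under the Loewe additivity model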
# Method: (§2) Drug interactions between antifungals and FPPS inhibitors were investigated using a simplified checkerboard diagonal screening method ([45]). […] FICIs were determined according to the Loewe additivity model ([17]).
# eight fungal species [3] = assay: MIC/MFC summary across the eight fungal species of Table 1; assay type: cell-based
# Method: The antifungal activity of these compounds was evaluated according to CLSI guidelines ([16]).
# Aspergillus fumigatus [4] = assay: MIC/MFC broth microdilution (CLSI); conditions: ATCC204305
# Method: as §1
# eight fungal species [5] = assay: checkerboard interaction with azoles, summary across the eight species; assay type: cell-based; conditions: geometric mean MIC in combination with azoles
# Description: Synergy between lipophilic FPPS inhibitors and azole antifungals was investigated by determining the fractional inhibitory concentration index (FICI) (Fig. 2; Table S1 Fig. S1) ([17]). […]. Derivatives PLA9 and 11, and PDA9, 11, and 12 antagonized azoles in C. albicans, C. neoformans, and C. deuterogattii, yet were largely synergistic in C. glabrata and S. cerevisiae. […].
# Trichophyton rubrum = assay: checkerboard drug interaction (FICI, MICc);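 note: simplified diagonal checkerboard screen pairing azole antifungals with FPPS inhibitors, FICI calculated under the Loewe additivity model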; assay type: cell-based; conditions: T. rubrum
# Method: as §2
# Aspergillus flavus = assay: MIC/MFC broth microdilution (CLSI); conditions: ATCC204304
# Method: as §1
# Cryptococcus neoformans = assay: checkerboard drug interaction (FICI, MICc);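 for all read-outs here: antifungal plus FPPS inhibitor pairs tested against Cryptococcus neoformans by simplified diagonal checkerboard screening, FICI computed under the Loewe additivity model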; assay type: cell-based; conditions: C. neoformans; for INH FD (MIC-MICc fold decrease): fold decrease of inhibitor MIC
# Method: as §2
# Candida albicans = assay: MIC/MFC broth microdilution (CLSI); assay type: cell-based; conditions: Candida albicans SC5314
# Method: as §1
# [6] = Fractional Inhibitory Concentration Index, fluconazole + inhibitor
# [7] = Fractional Inhibitory Concentration Index, itraconazole + inhibitor
# [8] = Fractional Inhibitory Concentration Index, ketoconazole + inhibitor
# [9] = MIC of the inhibitor in combination with fluconazole
# [10] = MIC of the inhibitor in combination with itraconazole
# [11] = MIC of the inhibitor in combination with ketoconazole
# [12] = MIC-MICc fold decrease of fluconazole, negative = increase
# [13] = MIC-MICc fold decrease of itraconazole, negative = increase
# [14] = MIC-MICc fold decrease of ketoconazole, negative = increase
# [15] = MIC-MICc fold decrease of the inhibitor, with fluconazole
# [16] = MIC-MICc fold decrease of the inhibitor, with itraconazole
# [17] = MIC-MICc fold decrease of the inhibitor, with ketoconazole
compound,measurement,setting,value
CCCCCCCCCCCCN1CCC[C@H]1C(=O)N[C@H](CC(=O)OC)C(=O)OC [dmPDA12],FICI (FLC:INH),Saccharomyces cerevisiae; [6],0.75
same,FICI (ITR:INH),Saccharomyces cerevisiae; [7],1.06
same,FICI (KET:INH),Saccharomyces cerevisiae; [8],0.56
same,INH MICc (FLC:INH),Saccharomyces cerevisiae; [9],32
same,INH MICc (ITR:INH),Saccharomyces cerevisiae; [10],4
same,INH MICc (KET:INH),Saccharomyces cerevisiae; [11],32
same,FLC FD (FLC:INH),Saccharomyces cerevisiae; [12],4
same,ITR FD (ITR:INH),Saccharomyces cerevisiae; [13],1
same,KET FD (KET:INH),Saccharomyces cerevisiae; [14],16
same,INH FD (FLC:INH),Saccharomyces cerevisiae; [15],2
same,INH FD (ITR:INH),Saccharomyces cerevisiae; [16],16
same,INH FD (KET:INH),Saccharomyces cerevisiae; [17],2
same,MFC,[1],32 µg/mL
same,MIC,[1],8 µg/mL
same,FICI (FLC:INH),Aspergillus fumigatus [2]; [6],1.5
same,FICI (ITR:INH),Aspergillus fumigatus [2]; [7],0.26
same,FICI (KET:INH),Aspergillus fumigatus [2]; [8],2
same,INH MICc (FLC:INH),Aspergillus fumigatus [2]; [9],128
same,INH MICc (ITR:INH),Aspergillus fumigatus [2]; [10],1
same,INH MICc (KET:INH),Aspergillus fumigatus [2]; [11],128
same,FLC FD (FLC:INH),Aspergillus fumigatus [2]; [12],2
same,ITR FD (ITR:INH),Aspergillus fumigatus [2]; [13],4
same,KET FD (KET:INH),Aspergillus fumigatus [2]; [14],1
same,INH FD (FLC:INH),Aspergillus fumigatus [2]; [15],1
same,INH FD (ITR:INH),Aspergillus fumigatus [2]; [16],128
same,INH FD (KET:INH),Aspergillus fumigatus [2]; [17],1
same,MFC,"eight fungal species [3]; across eight species, read-out: Geometric mean MFC",140 µg/mL
same,MIC,"eight fungal species [3]; geometric mean across eight species, read-out: GM fungal MIC",49.4 µg/mL
same,MIC,eight fungal species [3]; read-out: Geometric mean MIC,49.4 µg/mL
same,MFC,Aspergillus fumigatus [4],> 128 µg/mL
same,MIC,Aspergillus fumigatus [4],128 µg/mL
same,GM fungal MICc,eight fungal species [5],12
same,FICI (FLC:INH),Trichophyton rubrum; [6],≥4
same,FICI (ITR:INH),Trichophyton rubrum; [7],≥4
same,FICI (KET:INH),Trichophyton rubrum; [8],≥4
same,INH MICc (FLC:INH),Trichophyton rubrum; [9],32
same,INH MICc (ITR:INH),Trichophyton rubrum; [10],32
same,INH MICc (KET:INH),Trichophyton rubrum; [11],32
same,FLC FD (FLC:INH),Trichophyton rubrum; [12],-2
same,ITR FD (ITR:INH),Trichophyton rubrum; [13],8
same,KET FD (KET:INH),Trichophyton rubrum; [14],4
same,INH FD (FLC:INH),Trichophyton rubrum; [15],-4
same,INH FD (ITR:INH),Trichophyton rubrum; [16],-4
same,INH FD (KET:INH),Trichophyton rubrum; [17],-4
same,MFC,Aspergillus flavus,> 128 µg/mL
same,MIC,Aspergillus flavus,> 128 µg/mL
same,FICI,Cryptococcus neoformans; FLC:INH combination,1.25
same,INH MICc,"Cryptococcus neoformans; FLC:INH combination, MIC of the inhibitor in combination with FLC",8
same,FLC FD (MIC-MICc fold decrease),"Cryptococcus neoformans; FLC:INH combination, fold decrease of FLC MIC",4
same,INH FD (MIC-MICc fold decrease),Cryptococcus neoformans; FLC:INH combination,1
same,FICI,Cryptococcus neoformans; ITR:INH combination,1.25
same,INH MICc,"Cryptococcus neoformans; ITR:INH combination, MIC of the inhibitor in combination with ITR",8
same,ITR FD (MIC-MICc fold decrease),"Cryptococcus neoformans; ITR:INH combination, fold decrease of ITR MIC",4
same,INH FD (MIC-MICc fold decrease),Cryptococcus neoformans; ITR:INH combination,1
same,FICI,Cryptococcus neoformans; KET:INH combination,1.25
same,INH MICc,"Cryptococcus neoformans; KET:INH combination, MIC of the inhibitor in combination with KET",8
same,KET FD (MIC-MICc fold decrease),"Cryptococcus neoformans; KET:INH combination, fold decrease of KET MIC",4
same,INH FD (MIC-MICc fold decrease),Cryptococcus neoformans; KET:INH combination,1
same,MFC,Candida albicans,> 128 µg/mL
